# Assay results as given in patent publication US6258845A (priority 1999, dated 2001).
# Values joined by “and” are separate entries in the source; they are usually repeats but may differ in a detail not shown here. Equal values may be shown once. “Also recorded” adds a separate entry of the source.
# Key:
# [1] = in vivo; cited from earlier work
# COX (cyclooxygenase) = conditions: cited from earlier work
# [2] = tested on: AOM-treated rat model of colon carcinogenesis; conditions: in vivo; cited from earlier work
# colon cancer incidence = conditions: cited from earlier work
# [3] = tested on: colon mucosal prostaglandins; conditions: cited from earlier work
# [4] = tested on: prostaglandin E2 (PGE2) levels in flat mucosa; assay: Ibuprofen one month trial, PGE2 levels in flat mucosa; conditions: 300 mg/day
# [5] = tested on: carcinogenesis in rodent/animal models; conditions: in vivo; cited from earlier work
# [6] = cited from earlier work
# [7] = tested on: tumors harboring Ki-ras mutations in AOM-treated rats; conditions: cited from earlier work
# Ki-ras clone #60 = assay: Induction of apoptosis (light microscopy) in Ki-ras clone 60; type: cell-based, human; conditions: 120 μM sulindac sulfide
# Procedure: (§1) FIG. 3. […] Apoptosis was determined by light microscopy.
# (§2) FIG. 8. […] Cells were grown over a period of 6 days. Cells were harvested at various days (0, 2, 4 and 6 days), spun onto slides and stained. Apoptosis was determined by light microscopy. Percentage of apoptotic cells was calculated as the number of apoptotic cells out of the total cells counted times 100. At least 500 cells were counted for each sample.
# (§3) Cells were grown over a period of 6 days. Cells were harvested at various days (0, 2, 4 and 6 days), spun onto slides and stained. Apoptosis was determined by light microscopy. Percentage of apoptotic cells was calculated as the number of apoptotic cells out of the total cells counted times 100.
# rat enterocytes = conditions: cited from earlier work
# Ki-ras clone #66 = assay: Induction of apoptosis (light microscopy) in Ki-ras clone 66; conditions: 120 μM sulindac sulfide; printed 'clone 6'
# Caco-2 parental cells = assay: Induction of apoptosis (light microscopy) in Caco-2 parental cells; type: cell-based, human; conditions: 120 μM sulindac sulfide; Caco-2 parental
# Procedure: as §1, §2, §3
# [8] = tested on: Caco-2 parental cells, Ki-ras clone #60 and Ki-ras clone #66; assay: Viable cell number (trypan blue dye exclusion), growth of Caco-2 parental and Ki-ras transfected cells; type: cell-based, human
# [9] = tested on: Ki-ras transfected Caco-2 cells; assay: Induction of apoptosis in Ki-ras transfected versus parental Caco-2 cells; type: cell-based, human; conditions: 120 μM sulfide, 600 μM sulfone
# Procedure: as §1
# [10] = tested on: Caco-2 and clone 60 cells; assay: Clonogenic assay (colony-forming efficiency), Caco-2 and clone 60 cells; type: cell-based, human
# [11] = human, in vivo, po; cited from earlier work
smiles,measurement,setting,value
CC1(C)S[C@@H]2[C@H](NC(=O)[C@H](N)c3ccc(O)cc3)C(=O)N2[C@H]1C(=O)O [amoxicillin],adverse effects,[1],diarrhea and super-infections
CC(=O)Oc1ccccc1C(=O)O [aspirin],COX / prostaglandin synthesis inhibition,COX (cyclooxygenase),inhibitor of cyclooxygenase
same,inhibition of colon carcinogenesis in AOM-treated rat model,[2],effectively inhibit colon carcinogenesis
same,"beneficial effect, three large cohort studies",colon cancer incidence; in vivo,conflicting reports on the beneficial effect
same,weekly total dose with evident effect on colon cancer incidence,colon cancer incidence; weekly total dose,≥ 1000 mg
same,lowest dose decreasing PGF2α in colon mucosa,[3]; in vivo,40 mg
same,threshold dose of effect on colon mucosa,[3]; in vivo,81 mg and 80 mg
same,effect on colon mucosal prostaglandins,"[3]; low doses, another group of investigators",no such effect on colon mucosal prostaglandins
same,upper gastrointestinal mucosa prostaglandins,[3]; low doses,substantial reduction of prostaglandins; also recorded: substantial education of prostaglandins
CC[C@H]1OC(=O)[C@H](C)[C@@H](O[C@H]2C[C@@](C)(OC)[C@@H](O)[C@H](C)O2)[C@H](C)[C@@H](O[C@@H]2O[C@H](C)C[C@H](N(C)C)[C@H]2O)[C@](C)(OC)C[C@@H](C)C(=O)[C@H](C)[C@@H](O)[C@]1(C)O [clarithromycin],diarrhea,[1],10%
same,pseudomembranous colitis,[1],1%
CC(C)Cc1ccc(C(C)C(=O)O)cc1 (centres unmarked) [ibuprofen],PGE2 levels in flat mucosa,[4],significant decrease
same,chemoprevention / inhibition of tumor development in animal models,[5],less effective than other NSAIDs
same,inhibition of colon carcinogenesis in AOM-treated rat model,[2],effectively inhibit colon carcinogenesis
COc1ccc2c(c1)c(CC(=O)O)c(C)n2C(=O)c1ccc(Cl)cc1 [indomethacin],COX / prostaglandin synthesis inhibition,COX (cyclooxygenase),prostaglandin synthase inhibitor
same,inhibition of colon carcinogenesis in AOM-treated rat model,[2],effectively inhibit colon carcinogenesis
Cc1c(OCC(F)(F)F)ccnc1C[S+]([O-])c1nc2ccccc2[nH]1 (centres unmarked) [lansoprazole],diarrhea,[1],8%
same,headache,[1],5%
same,nausea,[1],3%
Cc1ncc([N+](=O)[O-])n1CCO [metronidazole],disulfiram-like reaction with alcohol ingestion,[1],20%
same,rash,[1],5%
COc1ccc2[nH]c([S+]([O-])Cc3ncc(C)c(OC)c3C)nc2c1 (centres unmarked) [omeprazole],dizziness,[1],2%
"CN1C(C(=O)Nc2ccccn2)=C(O)c2ccccc2S1(=O)=O [piroxicam, 4-Hydroxy-2-methyl-N-2-pyridyl-2H1,2-benzothiazine-3-carboxamide 1,1-dioxide]",side effects,[6]; IIb trial / meta-analysis,has more side effects than other NSAIDs
same,half-life,"[6]; human, in vivo",long half-life
same,most frequently reported side effects,"[6]; human, in vivo",Gastrointestinal complaints
same,chemoprevention / inhibition of tumor development in animal models,[5],the most effective chemoprevention agent in animal models
same,inhibition of colon carcinogenesis in AOM-treated rat model,[2],effectively inhibit colon carcinogenesis
same,Ki-ras mutation / tumors harboring an activated Ki-ras,[7],reduced Ki-ras mutation frequencies
same,amount of biochemically active p21 ras in existing tumors,[7],reduced the amount of biochemically active p21 ras in existing tumors
same,tumors harboring Ki-ras mutations,[7]; reduced from 90%,25%
CSc1ccc(/C=C2/C(C)=C(CC(=O)O)c3cc(F)ccc32)cc1 [sulindac sulfide],time of peak apoptosis,Ki-ras clone #60,4 days
same,resistance to apoptosis on Ki-ras activation,rat enterocytes,confers resistance to apoptosis
same,time of peak apoptosis,Ki-ras clone #66,6 days
same,time of peak apoptosis,Caco-2 parental cells,8 days
same,Ki-ras selective toxicity / Ki-ras-specific effect on growth,[8]; 120 μM sulindac sulfide or 600 μM sulindac sulfone,nor did sulindac sulfide or sulfone exert a Ki-ras-specific effect on growth
same,number of viable cells,"[8]; 120 μM sulindac sulfide, 10-day growth",remained relatively unchanged throughout the 10-day growth period
same,onset of apoptosis in Ki-ras transfected cells compared with parental cells,[9],accelerate the onset of apoptosis; also recorded: occurred several days earlier in Ki-ras transfected cells than in parental cells
same,survival normalized to like DFMO-treated controls,"[10]; 5 mM DFMO, increasing concentrations of sulindac sulfide",the survival rates of the DFMO-treated cells mirrored those of the non-DFMO-treated cells
same,IC50,"[10]; Homo sapiens, Caco-2, 24 h, read-out: 50% decrease in cell number",~225 µM
same,effect of Ki-ras activation on viability / colony-forming efficiency after sulindac metabolite,"[10]; increasing concentrations, 24 h",did not reveal any differences in colony-forming efficiency between Ki-ras transfectants and parental Caco-2 cells
same,mean half-life,[11],16.4 h
